Measured values reported in ChEMBL document CHEMBL4190382, “Targeting lysine specific demethylase 4A (KDM4A) tandem TUDOR domain - A fragment based approach” (Bioorg Med Chem Lett, 2018).
Values belong to the compound of their own block, whether it stands above or below them. Active and inactive are the calls of the source. The rule behind the calls is not given here. Square brackets hold non-standard residues; d marks the D form. Peptide text beside a SMILES is read from it. Lys(Me3) = C[N+](C)(C)CCCC[C@H](N)C(=O)O

Legend:
[1] = biological target: T1, Lysine-specific demethylase 4A (Homo sapiens, UniProt O75164); experiment: (§1) Binding affinity to thrombin cleavable N-terminal 6His-tagged and 13C-IVLM labeled human KDM4A tandem TUDOR domain (897 to 1011 residues) expressed in Escherichia coli BL21(DE3)-T1R at 1 mM by 13C HSQC NMR spectroscopy
T1 sequence (O75164 whole entry): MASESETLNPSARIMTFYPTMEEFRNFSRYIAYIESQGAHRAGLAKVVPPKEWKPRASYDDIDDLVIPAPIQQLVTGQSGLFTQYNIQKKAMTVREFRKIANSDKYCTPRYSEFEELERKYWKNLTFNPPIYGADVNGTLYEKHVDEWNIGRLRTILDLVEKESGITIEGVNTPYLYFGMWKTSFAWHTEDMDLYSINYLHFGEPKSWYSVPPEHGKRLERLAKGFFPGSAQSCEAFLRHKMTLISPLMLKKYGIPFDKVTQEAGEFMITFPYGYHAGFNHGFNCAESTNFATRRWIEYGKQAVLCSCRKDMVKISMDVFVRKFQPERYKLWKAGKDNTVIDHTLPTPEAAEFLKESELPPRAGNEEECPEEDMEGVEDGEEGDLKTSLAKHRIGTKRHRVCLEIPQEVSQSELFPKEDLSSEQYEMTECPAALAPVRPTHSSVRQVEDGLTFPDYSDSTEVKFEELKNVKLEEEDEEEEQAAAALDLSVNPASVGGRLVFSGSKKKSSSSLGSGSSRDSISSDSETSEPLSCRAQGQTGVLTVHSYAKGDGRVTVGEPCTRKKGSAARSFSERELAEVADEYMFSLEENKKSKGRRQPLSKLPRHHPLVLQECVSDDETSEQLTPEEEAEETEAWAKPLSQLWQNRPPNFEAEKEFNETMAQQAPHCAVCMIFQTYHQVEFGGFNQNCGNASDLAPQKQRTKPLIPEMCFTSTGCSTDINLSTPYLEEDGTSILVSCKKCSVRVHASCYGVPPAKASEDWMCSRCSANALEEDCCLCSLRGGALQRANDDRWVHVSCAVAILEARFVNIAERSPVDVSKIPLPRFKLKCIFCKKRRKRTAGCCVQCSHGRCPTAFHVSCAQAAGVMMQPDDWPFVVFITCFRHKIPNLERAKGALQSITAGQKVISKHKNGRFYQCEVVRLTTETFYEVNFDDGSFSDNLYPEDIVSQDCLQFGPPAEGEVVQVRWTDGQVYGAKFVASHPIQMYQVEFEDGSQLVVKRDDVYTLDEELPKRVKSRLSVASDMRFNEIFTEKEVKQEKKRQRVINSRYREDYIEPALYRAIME

[2] = biological target: T2, Lysine-specific demethylase 4A (Homo sapiens) (UniProt O75164); experiment: as §1
T2 sequence (whole entry): T1 sequence (O75164 whole entry)

[3] = biological target: T1, Lysine-specific demethylase 4A; experiment: Binding affinity to thrombin cleavable N-terminal 6His tagged and 13C-IVLM labeled human KDM4A tandem TUDOR domain (897 to 1011 residues) expressed in Escherichia coli BL21(DE3)-T1R by ITC method
[4] = biological target: T1, Lysine-specific demethylase 4A; experiment: Inhibition of NanoLuc-KDM4A-TUDOR domain (unknown origin) binding to Histone H3.3-HaloTag expressed in 293T cells incubated for 18 hrs by Nano-BRET based target engagement assay; assay type: cell-based

- Kd [1]: 80 µM
SMILES: CN(C)CC1C2CCC(c3ccccc3)(C2)C1O (stereo not given)

- Activity [2]: Active
- Kd [3]: 3 µM
SMILES: C[C@H](N)C(=O)N[C@@H](CCCNC(=N)N)C(=O)N[C@H](C(=O)N[C@@H](CCCC[N+](C)(C)C)C(=O)N[C@@H](CCC(N)=O)C(=O)N[C@H](C(=O)N[C@@H](C)C(=O)N[C@@H](CCCNC(=N)N)C(=O)N[C@@H](CCCCN)C(=O)N[C@@H](CO)C(=O)O)[C@@H](C)O)[C@@H](C)O

- EC50 [4]: 1220 µM
SMILES: CN(C)C[C@@H]1C2CCC(c3ccccc3)(C2)[C@@H]1O (stereo not given in full)

- Kd [3]: 4.7 µM
SMILES: CC(C)C[C@H](NC(=O)[C@@H](NC(=O)[C@H](CCCC[N+](C)(C)C)NC(=O)[C@H](CCCNC(=N)N)NC(=O)[C@H](Cc1cnc[nH]1)NC(=O)[C@H](CCCNC(=N)N)NC(=O)[C@@H](N)CCCCN)C(C)C)C(=O)N[C@@H](CCCNC(=N)N)C(=O)N[C@@H](CC(=O)O)C(=O)N[C@@H](CC(N)=O)C(=O)O (H-KRHR[Lys(Me3)]VLRDN-OH)
